# Source: patent US9801388B2, “Method for a pesticide having an insecticide, acaricide and nematicide action based on isoquinoline alkaloids and flavonoids” (PROMOTORA TECNICA INDUSTRIAL, S.A. DE C.V., priority 2011, dated 2017)
# Key:
# larvae of genus Plutella = assay: Field evaluation of effectiveness against Plutella larvae in Brassica oleracea crop; type: in vivo; conditions: dose 100 mL/Ha, fourth day after application
# Method: With the Brassica oleracea crop assessments of the control of larvae of the Plutella genus was performed, the results of this assessment are shown in Table V. The assessment was carried out the fourth day after the application.
# mammals = conditions: toxic for mammals; cited from earlier work
# Diaphorina sp nymphs = assay: Field evaluation of effectiveness against Diaphorina sp nymphs in Citrus sp. crop; type: in vivo; conditions: dose 5 mL/L
# Method: (§1) In accordance with the effectiveness percentages mentioned above, both of the developed products show a significant effectiveness to control insects belonging to the genus Bemisia. The evaluation was carried out four days after the application. The formulations were also applied to observe their effectiveness in the crop of Citrus sp. in controlling two pest species: Diaphorina sp. (adult and nymph) and mites of the genus Polyphagotarsonemus.
# (§2) Table III describes the effectiveness of the above mentioned treatments in controlling Diaphorina sp. nymphs.
# Diaphorina sp adults = assay: Field evaluation of effectiveness against Diaphorina sp adults in Citrus sp. crop; type: in vivo; conditions: dose 5 mL/L
# Method: as §1, §2
# [1] = system: insects of the genus Bemisia; assay: In vitro (laboratory) evaluation of effectiveness against Bemisia; type: in vivo; conditions: dose 2 mL/L (recommended by the manufacturer), 24 hours after application
# Method: In the laboratory assay both products were diluted to 5 mL of the formulation in 1 L of distilled water, and they were applied against insects of the genus Bemisia. To compare the effectiveness of the formulation distilled water was also applied as an absolute control and bifenthrin ([1a,3a-(Z)]-(±)-(2methyl[1,1′-biphenyl]-3-il)methyl-3-(2-cloro-3,3,3-trifluorine-1-propenyl-2,2-dimethyl cyclopropanecarboxylate) was applied as a commercial control. The application of the formulation was performed in laboratory conditions using devices to keep the specimens under observation. The effectiveness evaluation was carried out 24 hours after the application.
# The experimental unit consisted of four devices that were kept at 26 (±2° C.). Three repetitions of each evaluation were performed.
# In Table VI, the effectiveness observed in insects of the genus Bemisia after 24 hours of observation with each of the treatments is detailed. The dose of the commercial control (Bifenthrin) was that recommended by the manufacturer.
# [2] = system: nematodes of the genus Meloidogyne; assay: In vitro evaluation of effectiveness against Meloidogyne nematodes; type: in vivo; conditions: dilution 1:200, after 48 hours
# Method: The nematicide capacity of formulation 2 was evaluated; a satisfactory percentage after 48 hours was obtained.
# humans = conditions: toxic for humans; cited from earlier work
compound,measurement,setting,value
Spinosad,Effectiveness %,larvae of genus Plutella,52.8%
COc1ccc(C(=O)O[C@H]2CC[C@@]3(C)[C@@H]4CC[C@H]5[C@]6(O)C[C@H](O)[C@@]7(O)[C@@H](CN8C[C@@H](C)CC[C@H]8[C@@]7(C)O)[C@]6(O)C[C@@]53O[C@]24O)cc1OC [veratridine],DL50,mammals,13 mg/kg
CNC(=O)CSP(=S)(OC)OC [Dimethoate],Effectiveness %,Diaphorina sp nymphs,100%
same,Effectiveness %,Diaphorina sp adults,100%
"Cc1c(COC(=O)[C@@H]2[C@H](/C=C(\Cl)C(F)(F)F)C2(C)C)cccc1-c1ccccc1 (racemic) [Bifenthrin, [1a,3a-(Z)]-(±)-(2methyl[1,1′-biphenyl]-3-il)methyl-3-(2-cloro-3,3,3-trifluorine-1-propenyl-2,2-dimethyl cyclopropanecarboxylate]",Effectiveness %,[1],97.18%
C/C=C(/C)C(=O)O[C@H]1CC[C@@]2(C)[C@@H]3CC[C@H]4[C@]5(O)C[C@H](O)[C@@]6(O)[C@@H](CN7C[C@@H](C)CC[C@H]7[C@@]6(C)O)[C@]5(O)C[C@@]42O[C@]13O [cevadine],DL50,mammals,13 mg/kg
CNC(=O)Oc1cccc2c1OC(C)(C)C2 [Carbofuran],Effectiveness %,[2],100%
C=C(C)[C@H]1Cc2c(ccc3c2O[C@@H]2COc4cc(OC)c(OC)cc4[C@@H]2C3=O)O1 [Rotenone],DL50,humans,132 mg/kg
